The subject of one data set is AVA5 and APC103 cultures. Description: Cytotoxicity by neutral red dye uptake in the HCV replicon cultures. The format is cell-based. The following applies: at the concentrations used for the antiviral analyses. On the procedure: (§1) Antiviral activity of the test compounds was assessed (Okuse et al., 2005, Antivir. Res. 65:23) in the stably HCV replicating line, AVA5 (genotype 1b, subgenomic, replicon, Blight et al., 2000, Sci. 290: 1972) and APC 103 ((genotype 1a, genomic replicon). (ODE) phosphodiester ribavirin prodrug were added to dividing cultures daily for three days. Cultures generally start the assay at 30-50% confluence and reach confluence during the last day of treatment. Intracellular HCV RNA levels and cytotoxicity (on 96 well plates) were used. A total of 12 untreated control cultures and triplicate cultures treated with α-interferon and 2′CmeC served as assay controls.
(§2) Triplicate cultures for HCV RNA levels were measured using a conventional blot hybridization method in which HCV RNA levels were normalized to the levels of β-actin RNA in each individual culture (Okuse et al., 2005, Antivir. Res. 65:23). Cytotoxicity was measured using an established neutral red dye uptake assay (Korba et al., 1992, Antivir. Res. 19:55, Okuse et al., Antivir. Res. 65:23). Test compounds were received as powders on dry ice and were dissolved in 100% tissue culture grade DMSO (Sigma, Inc.) at 10 mM. Aliquots of test compounds sufficient for one daily treatment were made in individual tubes and all material was stored at −20° C. […]

Data set [1] relates to influenza A. Description: microbe, parasite or virus in culture. Conditions: MDCK, read-out: IC50 (minimum inhibitory drug concentration which reduces the CPE by 50%).
A further data set concerns PBMC cells. Briefly: CytoTox-ONE LDH release cytotoxicity assay, PBMC. The format is cell-based. The method, then: (§3) CytoTox-ONE™ homogeneous membrane integrity assay kits (Promega) was used in the cytotoxicity studies. The assay measured the release of lactate dehyrodegenase (LDH) from cells with damaged membranes in a fluorometric, homogeneous format. […] The amount of fluorescence produced is proportional to the number of lysed cells. The cytotoxicity assessment assay was performed using a designed plate format […] for allocation of media, drug, cells, and virus in a 96 well plate. Six serially diluted concentrations of octadecyl-ethanediol-modified (ODE) phosphodiester Ribavirin prodrug was applied to the cells to derive the TC50 (toxic concentration of the drug decreasing the cell viability by 50%), TC90 (toxic concentration of the drug decreasing the cell viability by 90%) and TC95 (toxic concentration of the drug decreasing the cell viability by 95%) values.
(In general: Release of lactate dehydrogenase indicates damage to the cell membrane.)

A short description of data set [2]: CytoTox-ONE LDH release cytotoxicity assay, PBMC. The format is cell-based. Conditions: PBMC cells, read-out: TC50 (toxic concentration decreasing cell viability by 50%). On the procedure:
as §3

For another data set, the system named is HepG2 cells. Description: CytoTox-ONE LDH release cytotoxicity assay, HepG2. The format is cell-based. The method, then:
as §3

Data set [3] can be described thus: CytoTox-ONE LDH release cytotoxicity assay, HepG2. The following applies: human, HepG2 cells, read-out: TC50 (toxic concentration decreasing cell viability by 50%). The format is cell-based. The method, then:
as §3

For data set [4], the system named is HCV replicon AVA5 (genotype 1b, subgenomic replicon). Description: HCV replication in cell culture, AVA5 replicon line (blot hybridization of HCV RNA). The format is cell-based. The following applies: AVA5 cultures, daily treatment for three days, normalized to β-actin RNA. The method, then:
as §1, §2
A general note: In antiviral work, replicon cells carry a viral genome segment that copies itself.

Data set [5] is described as follows: Pharmacokinetic study after single oral and intravenous administration in male CD-1 mice.
Protocol: (§4) Plasma samples were collected at pre-dose, 1, 3, 6, 12, 24, 48, and 72 hours post-dose for P.O. treatment group and at pre-dose, 0.25, 2, 6, 12, 24, 48, and 72 hours post-dose for I.V. treatment group. All samples were collected within ±2 minutes of the targeted time.
(§5) Phenolphthalein was used as an internal standard. […] The samples were mixed by vortexing for 5 minutes, and centrifuged at 15,000 rpm at 4° C. for 10 minutes. A 150-μL aliquot of the supernatant was transferred to a 96-well plate and 10 uL of supernatant sample was injected into the LC-MS/MS system for analysis. In each analytical batch, PK samples were run concurrently with calibration standards (blank, 0, 5, 10, 25, 50, 100, 150, 300, and 500 ng/mL), and low, mid, high, and 10-fold dilution QC samples (15, 250, 400, and 2000 ng/m L).
A 1/Y^2 weighting factor was used.
The subject of data set [6] is HCV replicon APC103 (genotype 1a, genomic replicon). Description: HCV replication in cell culture, APC103 replicon line (blot hybridization of HCV RNA). The format is cell-based. Conditions: APC103 cultures, daily treatment for three days, normalized to β-actin RNA. On the procedure: as §1, §2
A short description of another data set: in vitro. Conditions: dog.
The subject of data set [7] is influenza A.
The next data set can be described thus: in vivo. Conditions: male, CD-1, mouse, plasma.
The nature of data set [8]: CytoTox-ONE LDH release cytotoxicity assay, CEM. The format is cell-based. The following applies: human, CEM cells, read-out: TC50 (toxic concentration decreasing cell viability by 50%). The method, then:
as §3

In a further data set the test system is CEM cells. Briefly: CytoTox-ONE LDH release cytotoxicity assay, CEM. The format is cell-based. The method, then: as §3

What is called AUC(0-inf) is total exposure, with the tail of the curve extrapolated. By AUC(0-t) is commonly meant exposure summed from dosing to a finite time, without extrapolation to infinity. A higher AUC(0-t) goes with high exposure. The term Cmax denotes the highest concentration seen after dosing. The Tmax is the time at which the peak concentration occurs. For orientation: clearance means the volume of plasma or blood freed of the substance per unit of time. Read a high clearance as efficient removal. Broadly, the half-life is the time needed for the level to fall by half in the phase considered. A lower half-life goes with rapid decline. As usually defined, the bioavailability is dose-corrected exposure relative to a reference, in per cent. A lower bioavailability goes with poor availability.

SMILES strings stand for the structures.

Protocol for in vivo: as §4, §5
A 1/Y^2 weighting factor was used.

As for `CCCCCCCCCCCCCCCCCCOCCOP(=O)(O)OC[C@H]1O[C@@H](n2cnc(C(N)=O)n2)[C@H](O)[C@@H]1O` [(ODE) phosphodiester ribavirin prodrug, 1-(5-O-{hydroxy[2-(octadecyloxy)ethoxy]phosphoryl}-beta-D-ribofuranosyl)-1H-1,2,4-triazole-3-carboxamide], in the data set on AVA5 and APC103 cultures, the “toxicity (significant = greater than 50% depression of the dye uptake levels observed in untreated cells)” value was “No significant toxicity”. Further, in the data set on influenza A [1], the IC50 was under 0.316 µM. Besides, the “TC90 (toxic concentration decreasing cell viability by 90%)” value in the data set with PBMC cells stood at 245 µM; with HepG2 cells, 28.32 µM; in the data set on CEM cells, 63.41 µM. In addition, the “TC95 (toxic concentration decreasing cell viability by 95%)” value in the data set on PBMC cells came out at 272 µM; in the data set on HepG2 cells, 41.69 µM; in the data set with CEM cells, 84.55 µM. The CC50 in [2] stood at 111 µM; in [3] it was 13.2 µM; in the data set “in vitro”, 66.4 µM; in [8] it was 14.1 µM. Further, the “intracellular HCV RNA levels” value in [4] and in [6] was “selective reductions in intracellular HCV RNA levels” in each case. The “plasma levels (below LLOQ)” value in data set [5] (IV 5 mg/kg, from 12 hours to 72 hours post-dose) is listed as under 5 ng/mL; in [5] (PO 30 mg/kg, from 24 hours to 72 hours post-dose) it was under 5 ng/mL. In addition, the “therapeutic index (TI50 = TC50 / IC50)” value in the data set on influenza A [7] is listed as “greater than 210”. Further, the AUC(0-inf) amounted to 2660 ng·h/mL in “in vivo” (iv, 5 mg/kg) and 1700 ng·h/mL in the data set “in vivo” (po, 30 mg/kg). Further, the AUC(0-t) stood at 2640 ng·h/mL in “in vivo” (iv, 5 mg/kg) and 1660 ng·h/mL in “in vivo” (po, 30 mg/kg). Besides, the Cmax was 1960 ng/mL in the data set “in vivo” (iv, 5 mg/kg) and 407 ng/mL in the data set “in vivo” (po, 30 mg/kg). Besides, the time of peak concentration (Tmax) in the data set “in vivo” (iv, 5 mg/kg) was determined as 0.25 h; in “in vivo” (po, 30 mg/kg), 3 h. Further, the clearance in the data set “in vivo” (iv, 5 mg/kg) was 31.3 mL/min/kg. Besides, the half-life in “in vivo” (iv, 5 mg/kg) is 1.13 h. The compound further showed a bioavailability in the data set “in vivo” (oral, 30 mg/kg) of 10.7%.

For `NC(=O)c1ncn([C@@H]2O[C@H](CO)[C@@H](O)[C@H]2O)n1` [ribavirin, reference compound], the “toxicity (significant = greater than 50% depression of the dye uptake levels observed in untreated cells)” value in the data set with AVA5 and APC103 cultures is on record as “Significant toxicity”.

Source of the values: US20100298256A1, “ANTIVIRAL COMPOUNDS” (priority 2007, published 2010).
